Tests used:
[1] = target: T1, Serine/threonine-protein kinase D2 (Homo sapiens) (UniProt Q9BZL6); assay: Inhibition of human full length PKD2 expressed in baculovirus assessed as substrate phosphorylation using fluorescence-labelled peptides as substrate at 9 uM after 90 mins by microfluidic peptide phosphorylation assay
T1 sequence (whole entry): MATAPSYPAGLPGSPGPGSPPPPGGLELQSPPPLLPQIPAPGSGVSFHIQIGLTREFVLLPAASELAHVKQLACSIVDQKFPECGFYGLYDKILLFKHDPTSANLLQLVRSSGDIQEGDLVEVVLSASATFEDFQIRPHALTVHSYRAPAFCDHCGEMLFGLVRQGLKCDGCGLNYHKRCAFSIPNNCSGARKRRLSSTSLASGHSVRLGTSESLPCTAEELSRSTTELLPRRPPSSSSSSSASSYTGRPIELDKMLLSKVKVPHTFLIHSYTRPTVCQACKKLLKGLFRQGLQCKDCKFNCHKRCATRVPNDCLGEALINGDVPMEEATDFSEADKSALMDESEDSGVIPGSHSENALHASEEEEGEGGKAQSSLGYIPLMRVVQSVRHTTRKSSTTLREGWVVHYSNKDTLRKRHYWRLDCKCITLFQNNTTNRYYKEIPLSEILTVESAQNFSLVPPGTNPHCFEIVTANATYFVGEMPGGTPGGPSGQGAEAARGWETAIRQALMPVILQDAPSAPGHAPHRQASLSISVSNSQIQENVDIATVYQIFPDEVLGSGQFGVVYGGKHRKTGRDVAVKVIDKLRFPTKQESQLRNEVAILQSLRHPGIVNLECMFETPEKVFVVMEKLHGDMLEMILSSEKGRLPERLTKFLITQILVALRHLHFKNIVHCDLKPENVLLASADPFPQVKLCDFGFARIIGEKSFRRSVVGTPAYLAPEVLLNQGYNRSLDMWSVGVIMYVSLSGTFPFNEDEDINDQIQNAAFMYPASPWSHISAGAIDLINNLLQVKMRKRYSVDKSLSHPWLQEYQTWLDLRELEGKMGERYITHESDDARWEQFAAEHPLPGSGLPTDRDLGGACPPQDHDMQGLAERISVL

[2] = target: Casein kinase I isoform delta (Homo sapiens) (UniProt P48730); assay: Inhibition of human CK1D catalytic domain expressed in Escherichia coli cell assessed as substrate phosphorylation using fluorescence-labelled peptides as substrate at 9 uM after 90 mins by microfluidic peptide phosphorylation assay
[3] = target: Fibroblast growth factor receptor 3 (Homo sapiens) (UniProt P22607); assay: Inhibition of human FGFR3 catalytic domain expressed in baculovirus assessed as substrate phosphorylation using fluorescence-labelled peptides as substrate at 9 uM after 90 mins by microfluidic peptide phosphorylation assay
[4] = target: T2, Serine/threonine-protein kinase Chk1 (Homo sapiens) (UniProt O14757); assay: Inhibition of human full length CHK1 expressed in baculovirus assessed as substrate phosphorylation using fluorescence-labelled peptides as substrate at 95 uM after 90 mins by microfluidic peptide phosphorylation assay
T2 sequence (whole entry): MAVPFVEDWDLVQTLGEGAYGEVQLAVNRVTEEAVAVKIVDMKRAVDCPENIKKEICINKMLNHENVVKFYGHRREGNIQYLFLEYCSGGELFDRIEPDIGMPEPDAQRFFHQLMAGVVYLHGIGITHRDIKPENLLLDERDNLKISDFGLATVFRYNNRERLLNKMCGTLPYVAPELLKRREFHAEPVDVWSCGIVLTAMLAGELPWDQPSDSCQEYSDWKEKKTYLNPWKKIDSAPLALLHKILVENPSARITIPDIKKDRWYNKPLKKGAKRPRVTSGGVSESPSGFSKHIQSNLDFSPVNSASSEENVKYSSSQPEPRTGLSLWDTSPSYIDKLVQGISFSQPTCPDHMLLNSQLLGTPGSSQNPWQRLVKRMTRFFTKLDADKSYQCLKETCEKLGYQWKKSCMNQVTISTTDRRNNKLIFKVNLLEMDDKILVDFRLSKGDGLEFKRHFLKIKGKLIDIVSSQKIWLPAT

[5] = target: Mitogen-activated protein kinase 14 (Homo sapiens) (UniProt Q16539); assay: Inhibition of human truncated p38 alpha expressed in Escherichia coli cell assessed as substrate phosphorylation using fluorescence-labelled peptides as substrate at 0.06 uM after 90 mins by microfluidic peptide phosphorylation assay
[6] = target: Rho-associated protein kinase 2 (Homo sapiens) (UniProt O75116); assay: Inhibition of human ROCK2 catalytic domain expressed in baculovirus assessed as substrate phosphorylation using fluorescence-labelled peptides as substrate at 0.2 uM after 90 mins by microfluidic peptide phosphorylation assay
[7] = target: T3, Serine/threonine-protein kinase 3 (Homo sapiens) (UniProt Q13188); assay: Inhibition of human full length MST2 expressed in baculovirus assessed as substrate phosphorylation using fluorescence-labelled peptides as substrate at 2 uM after 90 mins by microfluidic peptide phosphorylation assay
T3 sequence (whole entry): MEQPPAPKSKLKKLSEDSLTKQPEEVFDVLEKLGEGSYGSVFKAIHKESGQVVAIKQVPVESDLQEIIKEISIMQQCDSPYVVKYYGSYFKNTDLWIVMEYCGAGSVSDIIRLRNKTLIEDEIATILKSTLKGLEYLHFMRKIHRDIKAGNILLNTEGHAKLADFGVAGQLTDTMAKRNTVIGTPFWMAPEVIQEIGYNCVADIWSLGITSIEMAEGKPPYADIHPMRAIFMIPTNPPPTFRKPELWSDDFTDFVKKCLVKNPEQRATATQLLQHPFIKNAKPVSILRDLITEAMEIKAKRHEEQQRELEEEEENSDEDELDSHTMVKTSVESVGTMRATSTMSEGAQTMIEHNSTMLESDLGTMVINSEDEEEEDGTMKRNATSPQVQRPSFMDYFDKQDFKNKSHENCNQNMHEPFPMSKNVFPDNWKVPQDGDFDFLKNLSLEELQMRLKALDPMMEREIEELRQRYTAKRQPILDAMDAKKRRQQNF

[8] = target: Serine/threonine-protein kinase MARK1 (Homo sapiens) (UniProt Q9P0L2); assay: Inhibition of human full length MARK1 expressed in baculovirus assessed as substrate phosphorylation using fluorescence-labelled peptides as substrate at 8 uM after 90 mins by microfluidic peptide phosphorylation assay
Sequence of Serine/threonine-protein kinase MARK1 (Homo sapiens) (Q9P0L2 whole entry, looked up): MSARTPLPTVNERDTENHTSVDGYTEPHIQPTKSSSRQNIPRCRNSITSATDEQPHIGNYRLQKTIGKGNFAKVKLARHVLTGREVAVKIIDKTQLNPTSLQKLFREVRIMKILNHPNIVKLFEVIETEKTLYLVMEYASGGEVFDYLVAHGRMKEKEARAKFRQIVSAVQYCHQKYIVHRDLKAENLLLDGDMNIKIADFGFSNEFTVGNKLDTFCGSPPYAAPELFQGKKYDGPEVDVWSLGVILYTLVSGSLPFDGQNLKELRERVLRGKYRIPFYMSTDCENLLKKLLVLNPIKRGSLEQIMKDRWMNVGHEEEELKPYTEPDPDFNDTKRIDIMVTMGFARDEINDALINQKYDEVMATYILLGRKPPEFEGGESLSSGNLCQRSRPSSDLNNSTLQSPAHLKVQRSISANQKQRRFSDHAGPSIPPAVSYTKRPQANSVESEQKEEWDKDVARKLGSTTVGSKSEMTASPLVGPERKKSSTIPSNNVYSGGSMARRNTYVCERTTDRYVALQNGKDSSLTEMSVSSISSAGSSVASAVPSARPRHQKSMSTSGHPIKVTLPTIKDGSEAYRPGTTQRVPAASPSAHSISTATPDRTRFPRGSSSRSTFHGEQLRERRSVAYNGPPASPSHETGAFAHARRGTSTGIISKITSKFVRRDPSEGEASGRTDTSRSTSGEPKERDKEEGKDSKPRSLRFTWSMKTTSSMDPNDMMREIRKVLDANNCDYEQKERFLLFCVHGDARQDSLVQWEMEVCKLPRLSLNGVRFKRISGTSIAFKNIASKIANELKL

Sequence of Mitogen-activated protein kinase 14 (Homo sapiens) (Q16539 whole entry, the tested form may be a part): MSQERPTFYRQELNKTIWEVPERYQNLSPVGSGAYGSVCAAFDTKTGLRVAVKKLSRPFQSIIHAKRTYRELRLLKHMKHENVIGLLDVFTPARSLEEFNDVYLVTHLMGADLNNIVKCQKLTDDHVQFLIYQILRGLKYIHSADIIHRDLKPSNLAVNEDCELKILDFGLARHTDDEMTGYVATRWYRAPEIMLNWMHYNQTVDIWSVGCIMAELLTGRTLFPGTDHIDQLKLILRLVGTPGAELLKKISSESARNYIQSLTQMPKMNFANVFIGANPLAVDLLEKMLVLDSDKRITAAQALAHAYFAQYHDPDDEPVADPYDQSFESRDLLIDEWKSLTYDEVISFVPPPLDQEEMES
Sequence of Casein kinase I isoform delta (Homo sapiens) (P48730 whole entry, looked up, the tested form may be a part, canonical isoform): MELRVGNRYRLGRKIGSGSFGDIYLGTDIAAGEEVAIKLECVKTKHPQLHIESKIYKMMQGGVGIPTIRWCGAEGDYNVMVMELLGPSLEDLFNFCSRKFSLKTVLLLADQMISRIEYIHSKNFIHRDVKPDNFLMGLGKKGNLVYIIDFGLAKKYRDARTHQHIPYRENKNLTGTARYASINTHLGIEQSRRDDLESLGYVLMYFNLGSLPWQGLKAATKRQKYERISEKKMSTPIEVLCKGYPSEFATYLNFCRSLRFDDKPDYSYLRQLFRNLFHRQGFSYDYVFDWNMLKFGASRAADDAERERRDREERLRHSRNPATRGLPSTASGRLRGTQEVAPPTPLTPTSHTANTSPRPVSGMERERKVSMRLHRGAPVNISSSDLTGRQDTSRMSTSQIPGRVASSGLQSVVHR
Sequence of Rho-associated protein kinase 2 (Homo sapiens) (O75116 whole entry, looked up, the tested form may be a part): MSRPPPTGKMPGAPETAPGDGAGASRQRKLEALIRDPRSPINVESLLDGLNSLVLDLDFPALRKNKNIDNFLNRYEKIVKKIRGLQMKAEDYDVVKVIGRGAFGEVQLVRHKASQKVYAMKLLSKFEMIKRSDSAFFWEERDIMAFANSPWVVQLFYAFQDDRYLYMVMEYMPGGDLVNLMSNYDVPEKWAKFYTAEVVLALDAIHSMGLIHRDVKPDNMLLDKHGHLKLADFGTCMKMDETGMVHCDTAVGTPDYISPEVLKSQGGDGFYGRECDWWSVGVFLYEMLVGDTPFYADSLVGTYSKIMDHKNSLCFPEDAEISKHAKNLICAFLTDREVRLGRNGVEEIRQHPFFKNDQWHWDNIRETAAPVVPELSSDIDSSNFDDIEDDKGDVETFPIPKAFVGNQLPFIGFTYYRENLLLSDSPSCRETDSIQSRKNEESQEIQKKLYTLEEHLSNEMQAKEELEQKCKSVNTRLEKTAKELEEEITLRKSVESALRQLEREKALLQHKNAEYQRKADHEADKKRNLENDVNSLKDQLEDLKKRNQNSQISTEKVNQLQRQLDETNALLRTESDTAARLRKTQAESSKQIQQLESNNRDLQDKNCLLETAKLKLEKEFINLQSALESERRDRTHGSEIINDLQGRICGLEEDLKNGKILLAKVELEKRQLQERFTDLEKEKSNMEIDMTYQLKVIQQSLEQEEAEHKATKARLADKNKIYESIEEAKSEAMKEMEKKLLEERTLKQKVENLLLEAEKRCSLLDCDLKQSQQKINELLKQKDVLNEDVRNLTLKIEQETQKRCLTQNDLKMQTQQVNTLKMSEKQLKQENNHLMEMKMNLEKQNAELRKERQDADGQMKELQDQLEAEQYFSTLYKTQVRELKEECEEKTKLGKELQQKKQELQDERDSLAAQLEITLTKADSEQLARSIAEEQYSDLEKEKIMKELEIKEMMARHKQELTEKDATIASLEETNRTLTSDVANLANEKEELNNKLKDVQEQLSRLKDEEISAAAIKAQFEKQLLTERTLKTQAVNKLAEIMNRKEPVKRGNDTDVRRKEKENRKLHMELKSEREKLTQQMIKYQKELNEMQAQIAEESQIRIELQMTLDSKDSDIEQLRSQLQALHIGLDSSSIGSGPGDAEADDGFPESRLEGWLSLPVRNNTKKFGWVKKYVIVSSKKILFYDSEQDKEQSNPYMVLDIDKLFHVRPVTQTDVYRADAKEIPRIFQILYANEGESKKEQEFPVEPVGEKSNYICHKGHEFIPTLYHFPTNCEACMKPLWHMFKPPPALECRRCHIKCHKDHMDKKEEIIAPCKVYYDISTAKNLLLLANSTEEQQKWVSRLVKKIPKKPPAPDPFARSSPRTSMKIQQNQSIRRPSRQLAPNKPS
Sequence of Fibroblast growth factor receptor 3 (Homo sapiens) (P22607 23-806 limits assumed): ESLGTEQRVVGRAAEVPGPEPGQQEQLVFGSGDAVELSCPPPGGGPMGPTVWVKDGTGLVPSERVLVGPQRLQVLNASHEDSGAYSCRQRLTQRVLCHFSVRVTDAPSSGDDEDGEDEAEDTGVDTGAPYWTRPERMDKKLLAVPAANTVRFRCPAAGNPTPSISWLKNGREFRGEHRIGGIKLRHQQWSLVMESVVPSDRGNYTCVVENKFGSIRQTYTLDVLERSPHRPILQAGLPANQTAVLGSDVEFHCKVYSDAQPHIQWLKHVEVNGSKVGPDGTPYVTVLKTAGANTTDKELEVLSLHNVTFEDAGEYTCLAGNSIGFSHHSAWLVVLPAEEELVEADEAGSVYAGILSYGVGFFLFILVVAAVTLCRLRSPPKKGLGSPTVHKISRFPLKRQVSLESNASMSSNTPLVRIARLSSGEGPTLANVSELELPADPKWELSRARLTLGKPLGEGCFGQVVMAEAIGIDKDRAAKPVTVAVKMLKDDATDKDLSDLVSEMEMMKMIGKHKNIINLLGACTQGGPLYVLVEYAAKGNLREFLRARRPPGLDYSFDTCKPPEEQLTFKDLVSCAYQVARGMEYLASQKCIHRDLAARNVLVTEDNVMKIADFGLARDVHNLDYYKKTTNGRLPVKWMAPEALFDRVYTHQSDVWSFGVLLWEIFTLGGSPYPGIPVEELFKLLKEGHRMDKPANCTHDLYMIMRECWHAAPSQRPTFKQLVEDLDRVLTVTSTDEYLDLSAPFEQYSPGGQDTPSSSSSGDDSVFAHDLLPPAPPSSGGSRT

NCC1CN(c2ncnc3[nH]c4cnccc4c23)CCO1 (stereo not drawn)
inhibition [1]: 68%
inhibition [2]: 39.5%
inhibition [3]: 43.5%

NCCc1ccc(-c2ncnc3[nH]cnc23)cc1
inhibition [4]: 75.5%

NC1(Cc2ccc(Cl)cc2)CCN(c2ncnc3[nH]ccc23)CC1
inhibition [5]: 0%

Clc1ccc(C2(c3ccc(-c4ncnc5[nH]cnc45)cc3)CCNCC2)cc1
inhibition [6]: 97%

NC1CCN(c2ncnc3[nH]ccc23)CC1
inhibition [7]: 17.5%

NCC1CCN(c2ncnc3[nH]ccc23)CC1
inhibition [8]: 74%
